Source: US11203600B2 (Denali Therapeutics Inc., priority 2017, dated 2021)

Target: GST-hRIPK1 (8-327) (Homo sapiens (Human), UniProt Q13546)
Experiment: Fluorescent Polarization Binding (FP Binding) assay, RIPK1
Settings: GST-hRIPK1 (8-327), mean of at least two independent experiments
Summary of the method: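 Binding by fluorescence polarisation at RT: 10 nM baculovirus-expressed GST-hRIPK1 (8-327) and 5 nM fluorescent ligand, 30 min, in 50 mM HEPES pH 7.5, 50 mM MgCl2, 0.02% CHAPS, 1% DMSO. FP read at ex 531/em 595 nm. IC50 from normalised percent inhibition, mean of ≥2 experiments.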

Chain of GST-hRIPK1 (8-327) (Q13546 8-327): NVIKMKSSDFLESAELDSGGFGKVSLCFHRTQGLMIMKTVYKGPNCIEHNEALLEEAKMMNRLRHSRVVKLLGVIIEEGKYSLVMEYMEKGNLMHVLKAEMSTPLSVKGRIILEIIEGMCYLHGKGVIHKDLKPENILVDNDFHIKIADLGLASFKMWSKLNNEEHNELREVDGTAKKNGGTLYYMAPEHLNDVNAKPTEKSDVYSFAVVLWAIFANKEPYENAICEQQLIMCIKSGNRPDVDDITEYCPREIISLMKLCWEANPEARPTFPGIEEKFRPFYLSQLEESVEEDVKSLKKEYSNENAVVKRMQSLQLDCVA

Row | SMILES | IC50 [nM]
1 | COC1(C(=O)N2CCOc3ccncc3C2)CCN(c2ncc(F)cn2)CC1 [Example 234, 3,5-dihydro-2H-pyrido[3,4-f][1,4]oxazepin-4-yl-[1-(5-fluoropyrimidin-2-yl)-4-methoxy-4-piperidyl]methanone] | 0.1 to 100
2 | COc1nc(N2CCC(OC)(C(=O)N3CCOc4ccncc4C3)CC2)ncc1F [Example 235, 3,5-dihydro-2H-pyrido[3,4-f][1,4]oxazepin-4-yl-[1-(5-fluoro-4-methoxy-pyrimidin-2-yl)-4-methoxy-4-piperidyl]methanone] | 0.1 to 100
3 | COc1nc(N2CCC(C(=O)N3CCOc4c(F)cncc4C3)CC2)ncc1F [Example 236] | 0.1 to 100
4 | COc1nc(N2CCC(C(=O)N3CCCc4ccccc4C3)CC2)ncc1F [Example 237, [1-(5-fluoro-4-methoxy-pyrimidin-2-yl)-4-piperidyl]-(1,3,4,5-tetrahydro-2-benzazepin-2-yl)methanone] | 0.1 to 100
5 | COc1nc(N2CCC(C(=O)N3CCOc4ccncc4C3)CC2)ncc1F [Example 238] | 0.1 to 100
6 | COC1(C(=O)N2CCOc3c(C#N)cncc3C2)CCN(c2ncccn2)CC1 [Example 239, 4-(4-methoxy-1-pyrimidin-2-yl-piperidine-4-carbonyl)-3,5-dihydro-2H-pyrido[3,4-f][1,4]oxazepine-9-carbonitrile] | 0.1 to 100
7 | CC1(C(=O)N2CCOc3c(C#N)cncc3C2)CCCCO1 (stereo not drawn) [Example 240, 4-(2-methyltetrahydropyran-2-carbonyl)-3,5-dihydro-2H-pyrido[3,4-f][1,4]oxazepine-9-carbonitrile] | 100 to 1000
8 | N#Cc1cncc2c1OCCN(C(=O)C1CCN(c3ncc(F)cn3)C[C@@H]1F)C2 (stereo partly drawn) [Example 241, 4-[(3,4)-cis-3-fluoro-1-(5-fluoropyrimidin-2-yl)piperidine-4-carbonyl]-3,5-dihydro-2H-pyrido[3,4-f][1,4]oxazepine-9-carbonitrile] | 100 to 1000
9 | N#Cc1cncc2c1OCCN(C(=O)C1CCN(c3ncc(F)cn3)C[C@@H]1F)C2 (stereo partly drawn) [Example 242, 4-[(3,4)-trans-3-fluoro-1-(5-fluoropyrimidin-2-yl)piperidine-4-carbonyl]-3,5-dihydro-2H-pyrido[3,4-f][1,4]oxazepine-9-carbonitrile] | 0.1 to 100
10 | N#Cc1cncc2c1OCCN(C(=O)C1CCN(c3ncc(F)cn3)CC1(F)F)C2 (stereo not drawn) [Example 243, 4-[3,3-difluoro-1-(5-fluoropyrimidin-2-yl)piperidine-4-carbonyl]-3,5-dihydro-2H-pyrido[3,4-f][1,4]oxazepine-9-carbonitrile] | 100 to 1000
11 | N#Cc1cncc2c1OCCN(C(=O)C1=CCN(c3ncc(F)cn3)CC1)C2 [Example 245, 4-[1-(5-fluoropyrimidin-2-yl)-3,6-dihydro-2H-pyridine-4-carbonyl]-3,5-dihydro-2H-pyrido[3,4-f][1,4]oxazepine-9-carbonitrile] | 100 to 1000
12 | N#Cc1cncc2c1OCCN(C(=O)C1CCN(c3nccc4ncnn34)CC1(F)F)C2 (stereo not drawn) [Example 246, 4-[3,3-difluoro-1-([1,2,4]triazolo[1,5-c]pyrimidin-5-yl)piperidine-4-carbonyl]-3,5-dihydro-2H-pyrido[3,4-f][1,4]oxazepine-9-carbonitrile] | 100 to 1000
13 | O=C(C1CCN(c2ncc(F)cn2)C[C@@H]1F)N1CCOc2c(F)cncc2C1 (stereo partly drawn) [Example 247] | 0.1 to 100
14 | O=C(C1=CCN(c2ncc(F)cn2)CC1)N1CCOc2c(F)cncc2C1 [Example 248] | 100 to 1000
15 | N#Cc1cncc2c1OCCN(C(=O)C1CCN(c3ccnc4ccnn34)C[C@@H]1F)C2 (stereo partly drawn) [Example 249, 4-[(3,4)-trans-3-fluoro-1-pyrazolo[1,5-a]pyrimidin-7-yl-piperidine-4-carbonyl]-3,5-dihydro-2H-pyrido[3,4-f][1,4]oxazepine-9-carbonitrile] | 0.1 to 100
16 | N#Cc1cncc2c1OCCN(C(=O)C1CCN(c3nccc4ncnn34)C[C@@H]1F)C2 (stereo partly drawn) [Example 250, 4-[(3,4)-trans-3-fluoro-1-([1,2,4]triazolo[1,5-c]pyrimidin-5-yl)piperidine-4-carbonyl]-3,5-dihydro-2H-pyrido[3,4-f][1,4]oxazepine-9-carbonitrile] | 100 to 1000
17 | O=C(C1CCN(c2nccc3ncnn23)CC1(F)F)N1CCOc2c(F)cncc2C1 (stereo not drawn) [Example 251, [3,3-difluoro-1-([1,2,4]triazolo[1,5-c]pyrimidin-5-yl)-4-piperidyl]-(9-fluoro-3,5-dihydro-2H-pyrido[3,4-f][1,4]oxazepin-4-yl)methanone] | 100 to 1000
18 | O=C(C1CCN(c2ccnc3ccnn23)CC1(F)F)N1CCOc2c(F)cncc2C1 (stereo not drawn) [Example 252, (3,3-difluoro-1-pyrazolo[1,5-a]pyrimidin-7-yl-4-piperidyl)-(9-fluoro-3,5-dihydro-2H-pyrido[3,4-f][1,4]oxazepin-4-yl)methanone] | 100 to 1000

Row | SMILES | IC50 [nM]
19 | O=C(C1CCN(c2ccnc3ccnn23)C[C@@H]1F)N1CCOc2c(F)cncc2C1 (stereo partly drawn) [Example 253, (9-fluoro-3,5-dihydro-2H-pyrido[3,4-f][1,4]oxazepin-4-yl)-[(3,4)-trans-3-fluoro-1-pyrazolo[1,5-a]pyrimidin-7-yl-4-piperidyl]methanone] | 0.1 to 100
20 | O=C(C1CCN(c2ncc(F)cn2)C[C@@H]1F)N1CCOc2ccncc2C1 (stereo partly drawn) [Example 254, 3,5-dihydro-2H-pyrido[3,4-f][1,4]oxazepin-4-yl-[(3,4)-trans-3-fluoro-1-(5-fluoropyrimidin-2-yl)-4-piperidyl]methanone] | 100 to 1000
21 | O=C(C1CCN(c2nccc3ncnn23)C[C@@H]1F)N1CCOc2c(F)cncc2C1 (stereo partly drawn) [Example 255] | 100 to 1000
22 | O=C(C1CCN(c2ccnc3c(F)cnn23)C[C@@H]1F)N1CCOc2c(F)cncc2C1 (stereo partly drawn) [Example 256, (9-fluoro-3,5-dihydro-2H-pyrido[3,4-f][1,4]oxazepin-4-yl)-[(3,4)-trans-3-fluoro-1-(3-fluoropyrazolo[1,5-a]pyrimidin-7-yl)-4-piperidyl]methanone] | 0.1 to 100
23 | O=C(C1CCN(c2nccn3ncnc23)C[C@@H]1F)N1CCOc2c(F)cncc2C1 (stereo partly drawn) [Example 257, (9-fluoro-3,5-dihydro-2H-pyrido[3,4-f][1,4]oxazepin-4-yl)-[(3,4)-trans-3-fluoro-1-([1,2,4]triazolo[1,5-a]pyrazin-8-yl)-4-piperidyl]methanone] | 100 to 1000
24 | Cc1ncc2c(c1C#N)OCCN(C(=O)C(C)(C)C(F)F)C2 [Example 262, 4-(3,3-difluoro-2,2-dimethyl-propanoyl)-8-methyl-3,5-dihydro-2H-pyrido[3,4-f][1,4]oxazepine-9-carbonitrile] | 100 to 1000
25 | [2H]C1([2H])Oc2c(C#N)cncc2CN(C(=O)C(C)(C)C(F)F)C1([2H])[2H] [Example 263, 2,2,3,3-tetradeuterio-4-(3,3-difluoro-2,2-dimethyl-propanoyl)-5H-pyrido[3,4-f][1,4]oxazepine-9-carbonitrile] | 0.1 to 100
26 | CC(CF)(C(=O)N1CCOc2c(C#N)cncc2C1)C(F)F (stereo not drawn) [Example 266, 4-[3,3-Difluoro-2-(fluoromethyl)-2-methyl-propanoyl]-3,5-dihydro-2H-pyrido[3,4-f][1,4]oxazepine-9-carbonitrile] | 100 to 1000
27 | CC(F)(F)C(C)(CF)C(=O)N1CCOc2c(C#N)cncc2C1 (stereo not drawn) [Example 267, 4-[3,3-Difluoro-2-(fluoromethyl)-2-methyl-butanoyl]-3,5-dihydro-2H-pyrido[3,4-f][1,4]oxazepine-9-carbonitrile] | 100 to 1000
28 | CC(C(=O)N1CCOc2c(C#N)cncc2C1)(C(F)F)C(F)F [Example 268, 4-[2-(difluoromethyl)-3,3-difluoro-2-methyl-propanoyl]-3,5-dihydro-2H-pyrido[3,4-f][1,4]oxazepine-9-carbonitrile] | 100 to 1000
29 | CC(F)(F)C(C)(C(=O)N1CCOc2c(C#N)cncc2C1)C(F)F (stereo not drawn) [Example 269, 4-[2-(difluoromethyl)-3,3-difluoro-2-methyl-butanoyl]-3,5-dihydro-2H-pyrido[3,4-f][1,4]oxazepine-9-carbonitrile] | 100 to 1000
30 | C=CC(C)(C)C(=O)N1CCOc2c(C#N)cncc2C1 [Example 271, 4-(2,2-dimethylbut-3-enoyl)-3,5-dihydro-2H-pyrido[3,4-f][1,4]oxazepine-9-carbonitrile] | 0.1 to 100
31 | CC(C)(C(=O)N1CCOc2c(C#N)cncc2C1)C1CC1COC(F)(F)F (stereo not drawn) [Example 274, 4-(2-Methyl-2-(2-((trifluoromethoxy)methyl)cyclopropyl)propanoyl)-2,3,4,5-tetrahydropyrido[3,4-f][1,4]oxazepine-9-carbonitrile] | > 1000
32 | CC(C)(C(=O)N1CCOc2c(C#N)cncc2C1)C1CC(n2nccn2)C1 (stereo not drawn) [Example 275, 4-[2-Methyl-2-[3-(triazol-2-yl)cyclobutyl]propanoyl]-3,5-dihydro-2H-pyrido[3,4-f][1,4]oxazepine-9-carbonitrile] | 100 to 1000
33 | CC(C)(C(=O)N1CCOc2c(C#N)cncc2C1)C1CC(n2ccnn2)C1 (stereo not drawn) [Example 276, 4-[2-Methyl-2-[3-(triazol-1-yl)cyclobutyl]propanoyl]-3,5-dihydro-2H-pyrido[3,4-f][1,4]oxazepine-9-carbonitrile] | > 1000
34 | CC(C)(C(=O)N1CCOc2c(C#N)cncc2C1)C1CC(n2cc(F)cn2)C1 (stereo not drawn) [Example 277, 4-[2-[3-(4-fluoropyrazol-1-yl)cyclobutyl]-2-methyl-propanoyl]-3,5-dihydro-2H-pyrido[3,4-f][1,4]oxazepine-9-carbonitrile] | 100 to 1000
35 | CC(C)(C(=O)N1CCOc2c(C#N)cncc2C1)C1CC(Cl)C1 (stereo not drawn) [Example 278, 4-[2-(3-chlorocyclobutyl)-2-methyl-propanoyl]-3,5-dihydro-2H-pyrido[3,4-f][1,4]oxazepine-9-carbonitrile] | 0.1 to 100
36 | CC(C)(C(=O)N1CCOc2c(C#N)cncc2C1)C1CC(OC(F)(F)F)C1 (stereo not drawn) [Example 279, 4-[2-methyl-2-[3-(trifluoromethoxy)cyclobutyl]propanoyl]-3,5-dihydro-2H-pyrido[3,4-f][1,4]oxazepine-9-carbonitrile] | 0.1 to 100
